# Assay results: patent publication US20110214190A1, “TRANSGENIC REPORTER MOUSE AND METHOD FOR USE” (priority 2008, published 2011)
# Read-outs that look alike come from different tables or passages of the source. Peptide text beside a SMILES is read from it. * marks the point of attachment. Cbz = O=C(OCc1ccccc1)*
# Experiments:
# NGAL expression = assay: Cell stressors, NGAL expression; format: cell-based; details: H202 1 mmol/L for 4 hours
# Nf-κβ signaling = assay: Nf-κβ inhibitors on LipidA induced Luc/mC expression in vivo; parameters: species or system mouse
# From the text: A signaling pathway known to activate NGAL expression was taken advantage of in order to examine whether Luc2/mC expression was reversible after cessation of the stimulus. […] Subsequently, Nf-κβ mediates NGAL transcription. […] In addition, the testis is one of the few sites that tonically expresses NGAL and Luc2/mC, and even this site was suppressed by these inhibitors.
# [1] = system: cells from reporter kidneys; assay: NGAL-luciferase activity in primary cells from reporter kidneys; format: cell-based, mouse; details: plates seeded with cells from reporter kidneys
# From the text: NGAL di-fusion primary cells from whole organs. Whole kidney cells were obtained from the NGAL di-fusion reporter mice (8-12 weeks of age) using collagenase (Sigma) digestion, differential sieving and seeded at a density of 1×10^5 per well. Cells were washed with a buffered salt solution and grown overnight before exposure to TLR agonists, ROS inducing species or toxin. Plates were imaged in the Xenogen IVIS optical imaging system (Xenogen Corp., Almeda, Calif.) for NGAL-luciferase activity.
# Bioluminescence and Fluorescence Imaging of mCherry and luciferase Expression in Living Mice and primary cell lines. For in vivo bioluminescence imaging, mice were anesthetized, and injected with 150 mg/kg of luciferin in PBS (pH 7) via IP injection that is allowed to distribute in awake animals for about 10 minutes. […] Regions of interest (ROIs) were drawn on the dorsal side of the animal and quantified by using Living Image Software version 3.1. Counts detected in the ROIs by the CCD camera digitizer can by converted to physical units of radiance in photons/s/cm2/steradian. […] NGAL reporter primary cells were first imaged for mCherry activity with block excitation and block emission and NGAL-luciferase activity was quantified by detection of light emitted after cell lysis and incubation with luciferin. […]
# [2] = cited from earlier work
# PARP = details: after onset of acute hindlimb ischemia (post hoc), during I/R; cited from earlier work
# NGAL reporter ES cells = assay: NGAL-luciferase responsiveness in NGAL reporter ES cells; format: cell-based, mouse; details: NGAL reporter ES cells exposed to stimulant; control conditions no detectable expression
# From the text: […]. […] […]. Verification of the germline-transmitted F1 mice. The targeted allele was PCR-amplified by using primers F2, and R3 which was from the 1 Kb DNA fragment replaced by a DTA-AMP^r cassette in the targeting construct.
# NGAL targeting in mouse ES cells. The NGAL-targeting construct was electroporated into the KV1 ES cells, and the neomycin-resistant ES clones were PCR-screened for the targeted NGAL allele for homologous recombination. Additionally, ES cells containing the NGAL di-fusion gene were challenged with either cisplatin or LPS to induce NGAL reporter activity (FIG. 1B, Panel D). ES cells with a Luc2-mCherry-LNL knockin allele were microinjected into wild-type C57B6 blastocysts to generate chimera which were subsequently mated with albino C57B6 female mice for germline transmission. The F1 mice were PCR-genotyped by using primers F1, R1 and R2, and the germline transmitted mice contained both targeted and wild type alleles (FIG. 1B, Panel C).
# Luciferase (pGL4.10[luc2], Promega E6651) and mCherry (pmCherry [mC], Clontech 632522) genes separated by a 42 by spacer were ligated by overlap PCR and validated in 293T cells using a CMV promoter to drive robust Luc2 and mC bioluminescence and fluorescence (FIG. 1A, Panel A). […]
# NGAL-Luc2/mC reporter = assay: In vivo bioluminescence imaging of NGAL di-fusion reporter mouse after LipidA; details: for NGAL activity assayed by luciferase (Luc2/mC response): kidney, liver, spleen, skin and lung, 24 hours after lipidA i.p. at 5, 15 and 30 mg/kg
# Experimental: Bioluminescence and Fluorescence Imaging of mCherry and luciferase Expression in Living Mice and primary cell lines. For in vivo bioluminescence imaging, mice were anesthetized, and injected with 150 mg/kg of luciferin in PBS (pH 7) via IP injection that is allowed to distribute in awake animals for about 10 minutes. […]. Mice are then placed in a light tight chamber equipped with a halogen light source, and whole body image was acquired for 30 seconds using the Xenogen IVIS optical imaging system with a block excitation filter and a block emission filter for NGAL-mCherry visualization and an open emission filter for NGAL-luciferase activity. Regions of interest (ROIs) were drawn on the dorsal side of the animal and quantified by using Living Image Software version 3.1. Counts detected in the ROIs by the CCD camera digitizer can by converted to physical units of radiance in photons/s/cm2/steradian. Visualization of NGAL di-fusion reporter activity in primary cells were also assayed in the bioimager. NGAL reporter primary cells were first imaged for mCherry activity with block excitation and block emission and NGAL-luciferase activity was quantified by detection of light emitted after cell lysis and incubation with luciferin.
# NGAL message [3] = assay: NGAL message (real-time PCR) in kidney after LipidA; format: in vivo, mouse; details: 30 mg/kg LipidA
# Experimental: (§1) Real-Time PCR were prepared according to Bio-Rad SYBR GREEN, iCyclerMyiQ protocols. Target genes, including Ngal, β-actin, utilized respectively: Ngal 116 forward primer 5′-[…]-3′ and NGALa593 reverse 5′-[…]-3′; β-actin415 forward primer 5′-[…]-3′ and β-actin 696 reverse primer 5′-[…]-3′. The ΔΔCT method was used to calculate fold amplification of transcripts.
# as §1, with “Real Time” for “Real-Time”, “PCR analysis. Samples” for “PCR”, “processed” for “prepared”, “genes” for “genes, including Ngal, β-actin,”
# [4] = format: in vivo, mouse
# From the text: Identification of Hidden Damage. Serum creatinine was little changed in our model of unilateral ischemia, because the untouched contralateral kidney limited the opportunity for azotemia.
# NGAL message [5] = assay: Ngal in situ hybridization of kidney after lipidA challenge; format: in vivo, mouse; details: after LipidA treatment
# Experimental: In situ hybridization. NGAL RNA was detected using digoxigenin-labeled antisense riboprobes generated from cDNAs encoding Ngal (exon 1-7, 566 bp) by linearization with XhoI followed by T7 RNA polymerase. Kidneys were collected in ice-cold PBS and fixed overnight at 4° C. in 4% paraformaldehyde (PFA) in 0.1 M phosphate buffer saline (PBS), briefly quenched in 50 mM NH4Cl, cryoprotected overnight in 30% sucrose PBS and embedded and sectioned ([…]) in O.C.T. compound. The sections were post-fixed in 4% PFA for 10 min, treated with proteinase K (1 mg/ml for 3 min), acetylated and prehybridized for 2 hrs, and then hybridized at 68-72° C. overnight. The prehybridization and hybridization solution was 50% formamide, 5′SSC, 5′ Denhardts, […] baker's yeast RNA (Sigma), and […] herring sperm DNA (Sigma). Sections were washed at 72° C. in 5′SSC for 5-10 minutes, then at 72° C. in 0.2′SSC for 1 hour and then stained overnight (4° C.) with an anti-digoxigenin antibody coupled with alkaline phosphatase (Boehringer-Mannheim), at a 1:5000 dilution in 0.1 M Tris-HCl, pH 7.5, 0.15 M NaCl, 1% heat inactivated goat serum. Alkaline phosphatase activity was detected using BCIP, NBT (Boehringer-Mannheim) with 0.25 mg/ml levamisole in a humidified chamber for 1-3 days in the dark. Sections were dehydrated and mounted in Permount (Fisher Scientific). […]
# cyst growth = details: polycystic kidney disease model; cited from earlier work
compound,measurement,setting,value
Cobalt,NGAL expression,NGAL expression,trigger NGAL expression
CC(C)C[C@@H](C=O)NC(=O)[C@H](CC(C)C)NC(=O)[C@H](CC(C)C)NC(=O)OCc1ccccc1 [MG-132] (Cbz-Leu-Leu-Leu-aldehyde),Tonic NGAL and Luc2/mC expression in testis,Nf-κβ signaling,suppressed
same,LipidA induced Luc/mC expression,Nf-κβ signaling; NGAL reporter mouse,reduced LipidA induced Luc/mC expression
N.N.[Cl][Pt][Cl] [cisplatin],Response of primary reporter kidney cells (luciferase),[1],direct effect on renal epithelia
[C-]#[O+].[C-]#[O+].[C-]#[O+].[C-]#[O+].[C-]#[O+].[C-]#[O+].[Cl][Ru][Cl].[Cl][Ru][Cl] [tricarbonyldichlororuthenium(II) dimer],Levels of plasma creatinine,[2]; in vivo,significantly decreased
CN(C)CC(=O)Nc1ccc2[nH]c(=O)c3ccccc3c2c1 [PJ34],Local production of inflammatory mediators,PARP,modulates the local production of inflammatory mediators
LipidA,NGAL-luciferase activity,NGAL reporter ES cells,induced NGAL-luciferase activity
same,NGAL activity assayed by luciferase (Luc2/mC response),NGAL-Luc2/mC reporter,graded Luc-mC response
same,NGAL activity assayed by luciferase (Luc2/mC response),NGAL-Luc2/mC reporter; listed as lipidA,upregulated and dose dependent
same,"Luc/mC induction, positive control",NGAL-Luc2/mC reporter; same mice at a later time after volume depletion,effectively induced Luc/mC
same,NGAL message induced in the kidney,NGAL message [3],30 fold
same,Azotemia,[4]; 30 mg/kg dose of LipidA,induced Luc/mC and azotemia
same,Azotemia / serum creatinine,[4]; low doses of LipidA (Luc/mC still induced),without azotemia or a change in serum creatinine
same,Response of primary reporter kidney cells (luciferase),[1],responded in dose-dependent manner
same,Localisation of Ngal expression in kidney,NGAL message [5],predominate expression in inner medullary tubules
same,Localisation of Ngal expression in kidney,NGAL message [5]; listed as lipidA,expressed in tubules
CC(=O)O[C@H]1C(=O)[C@@]2(C)[C@H]([C@H](OC(=O)c3ccccc3)[C@]3(O)C[C@H](OC(=O)[C@H](O)[C@@H](NC(=O)c4ccccc4)c4ccccc4)C(C)=C1C3(C)C)[C@]1(OC(C)=O)CO[C@@H]1C[C@@H]2O [taxol],Cyst growth,cyst growth,limit cyst growth
"NCC(=O)O.[CH+]=O.[CH+]=O.[CH+]=O.[Cl][Ru] [CORM-3, tricarbonylchloro(glycinato)ruthenium(II)]",Levels of plasma creatinine,"[2]; given 1 hour before onset of ischemia, 24 hours after reperfusion",significantly decreased
